Test system in the first data set: not listed separately
The data set is described as follows: logP by HPLC (EEC Directive 79/831 Annex V. A8, gradient method). It counts as physicochemical. Conditions: acetonitrile/0.1% aqueous phosphoric acid. As to the method: In Table 1, Me represents methyl. The logP values were determined in accordance with EEC Directive 79/831 Annex V. A8 by HPLC (gradient method, acetonitrile/0.1% aqueous phosphoric acid).
As for `COc1ccc(Oc2noc(=O)n2S(=O)(=O)c2ccc(C)cc2)cc1` [Example 3], the chromatographic logP is 3.34. On the same count and under the same terms, for `Cc1ccc(S(=O)(=O)n2c(Oc3cc(C)ccc3C)noc2=O)cc1` [Example 4] the value was 3.93; for `Cc1ccc(S(=O)(=O)n2c(Oc3ccc(F)cc3)noc2=O)cc1` [Example 6], 3.39. On the same count and under the same terms, for `Cc1ccc(C)c(Oc2noc(=O)n2S(C)(=O)=O)c1` [Example 8] the value was 2.7. Still for that read-out and setting: in the case of `Cc1ccc(S(=O)(=O)n2c(Oc3ccc(C)cc3C)noc2=O)cc1` [Example 9] it was 3.89; in that of `Cc1ccc(Oc2noc(=O)n2S(C)(=O)=O)c(C)c1` [Example 10], 2.73. Compound `Cc1ccc(Oc2noc(=O)n2S(=O)(=O)N(C)C)c(C)c1` [Example 12] showed a chromatographic logP of 3.13.

`COc1ccc(Oc2noc(=O)n2S(=O)(=O)N(C)C)cc1` [Example 13] showed a chromatographic logP of 2.5.

In the case of `CCS(=O)(=O)n1c(Oc2ccc(C)cc2C)noc1=O` [Example 14], the chromatographic logP is 2.95. The same measure, in the same setting: for `CN(C)S(=O)(=O)n1c(Oc2ccc(Cl)cc2)noc1=O` [Example 15] the value was 2.94. The compound `Cc1ccc(Oc2noc(=O)n2S(=O)(=O)N(C)C)cc1C` [Example 16] had a chromatographic logP of 3.15. The same measure, in the same setting: in the case of `CN(C)S(=O)(=O)n1c(Oc2ccccc2)noc1=O` [Example 18] it was 2.48; in that of `CN(C)S(=O)(=O)n1c(Oc2ccc(F)cc2)noc1=O` [Example 19], 2.58.

In turn, `Cc1cccc(Oc2noc(=O)n2S(=O)(=O)N(C)C)c1` [Example 20] showed a chromatographic logP of 2.83. Compound `CN(C)S(=O)(=O)n1c(Oc2cccc(C(F)(F)F)c2)noc1=O` [Example 21] returned a chromatographic logP of 3.13. On the same count and under the same terms, in the case of `CN(C)S(=O)(=O)n1c(Oc2ccc(Cl)c(Cl)c2)noc1=O` [Example 22] it was 3.37. `COc1ccccc1Oc1noc(=O)n1S(=O)(=O)N(C)C` [Example 23] displayed a chromatographic logP of 2.49. Still for that read-out and setting: in the case of `CCN(CC)S(=O)(=O)n1c(Oc2cccc(OC)c2)noc1=O` [Example 28] it was 3.14; in that of `CCN(CC)S(=O)(=O)n1c(Oc2ccccc2C)noc1=O` [Example 29], 3.33; in that of `Cc1cccc(Oc2noc(=O)n2S(=O)(=O)N(C)C)c1C` [Example 30], 3.04. Compound `CCN(CC)S(=O)(=O)n1c(Oc2ccc(C)cc2C)noc1=O` [Example 31] yielded a chromatographic logP of 3.72. Turning to `Cc1cc(C)cc(Oc2noc(=O)n2S(=O)(=O)N(C)C)c1` [Example 32], the chromatographic logP worked out at 3.18. Turning to `CCN(CC)S(=O)(=O)n1c(Oc2cc(C)cc(C)c2)noc1=O` [Example 33], the chromatographic logP stood at 3.75. The same measure, in the same setting: in the case of `COC(=O)c1cccc(Oc2noc(=O)n2S(=O)(=O)N(C)C)c1` [Example 34] it was 2.54. Still for that read-out and setting: in the case of `CCN(CC)S(=O)(=O)n1c(Oc2cc(C)ccc2C)noc1=O` [Example 35] it was 3.7; in that of `CCN(CC)S(=O)(=O)n1c(Oc2cccc(C)c2C)noc1=O` [Example 36], 3.64.

The compound `CCN(CC)S(=O)(=O)n1c(Oc2cccc(C(=O)OC)c2)noc1=O` [Example 37] returned a chromatographic logP of 3.09. On the same count and under the same terms, in the case of `CCN(CC)S(=O)(=O)n1c(Oc2ccc(Cl)cc2)noc1=O` [Example 38] it was 3.53; in that of `CCN(CC)S(=O)(=O)n1c(Oc2ccccc2)noc1=O` [Example 39], 3.06. Still for that read-out and setting: in the case of `COc1cccc(Oc2noc(=O)n2S(=O)(=O)N(C)C)c1OC` [Example 40] it was 2.58. On the same count and under the same terms, for `CCN(CC)S(=O)(=O)n1c(Oc2c(C)cccc2C)noc1=O` [Example 42] the value was 3.64. As to `CCN(CC)S(=O)(=O)n1c(Oc2cccc(C)c2)noc1=O` [Example 43], the chromatographic logP came out at 3.42. On the same count and under the same terms, in the case of `CCN(CC)S(=O)(=O)n1c(Oc2ccc(OC)cc2)noc1=O` [Example 44] it was 3.1; in that of `CCN(CC)S(=O)(=O)n1c(Oc2ccc(C)cc2)noc1=O` [Example 45], 3.42. Still for that read-out and setting: for `CCN(CC)S(=O)(=O)n1c(Oc2ccccc2OC)noc1=O` [Example 46] the value was 3.05. Turning to `CN(C)S(=O)(=O)n1c(Oc2ccccc2F)noc1=O` [Example 47], the chromatographic logP is 2.55. Regarding `CCN(CC)S(=O)(=O)n1c(Oc2cccc(C(F)(F)F)c2)noc1=O` [Example 48], the chromatographic logP was determined as 3.68. The same measure, in the same setting: in the case of `CCN(CC)S(=O)(=O)n1c(Oc2cccc(OC)c2OC)noc1=O` [Example 49] it was 3.15; in that of `CCN(CC)S(=O)(=O)n1c(Oc2ccc(F)cc2)noc1=O` [Example 50], 3.16; in that of `CN(C)S(=O)(=O)n1c(Oc2ccc(Cl)cc2Cl)noc1=O` [Example 51], 3.29. Same read-out and setting: for `CN(C)S(=O)(=O)n1c(Oc2ccc(OC(F)(F)F)cc2)noc1=O` [Example 52] the value was 3.3; for `CN(C)S(=O)(=O)n1c(Oc2ccc(Oc3ccccc3)cc2)noc1=O` [Example 53], 3.58. Same read-out and setting: in the case of `CCN(CC)S(=O)(=O)n1c(Oc2ccc(Oc3ccccc3)cc2)noc1=O` [Example 54] it was 4.19; in that of `CN(C)S(=O)(=O)n1c(Oc2cccc(Cl)c2)noc1=O` [Example 55], 2.95; in that of `CCN(CC)S(=O)(=O)n1c(Oc2cccc(Cl)c2)noc1=O` [Example 56], 3.53. In the case of `CN(C)S(=O)(=O)n1c(Oc2ccc3c(c2)CCC3)noc1=O` [Example 57], the chromatographic logP is 3.3. The same measure, in the same setting: in the case of `CCN(CC)S(=O)(=O)n1c(Oc2ccc3c(c2)CCC3)noc1=O` [Example 58] it was 3.88; in that of `CCN(C)S(=O)(=O)n1c(Oc2ccc(Oc3ccccc3)cc2)noc1=O` [Example 59], 3.83.

`CN(C)S(=O)(=O)n1c(Oc2ccc(-c3ccccc3)cc2)noc1=O` [Example 60] displayed a chromatographic logP of 3.56.

In turn, `CN(C)S(=O)(=O)n1c(Oc2ccccc2-c2ccccc2)noc1=O` [Example 61] came in with a chromatographic logP of 3.37. `CCN(CC)S(=O)(=O)n1c(Oc2ccc(OC(F)(F)F)cc2)noc1=O` [Example 62] yielded a chromatographic logP of 3.82. On the same count and under the same terms, in the case of `CCN(CC)S(=O)(=O)n1c(Oc2ccc(Cl)cc2Cl)noc1=O` [Example 63] it was 3.88; in that of `CCN(C)S(=O)(=O)n1c(Oc2cc(C)ccc2C)noc1=O` [Example 64], 3.42. `COc1cccc(OC)c1Oc1noc(=O)n1S(=O)(=O)N(C)C` [Example 65] displayed a chromatographic logP of 2.51.

The next data set relates to Phytophthora infestans. The data set is described as follows: whole plant or invertebrate. It counts as in vivo. Conditions: in Solanum lycopersicum, 72 h, read-out: Efficacy.
For `Cc1ccc(C)c(Oc2noc(=O)n2S(=O)(=O)N(C)C)c1` [Example 1, N,N-dimethyl-3-(2,5-dimethylphenoxy)-5-oxo-[1,2,4]oxadiazole-4-sulphonamide], the pest or weed control at 100 g/ha amounted to 99%. On the same count and under the same terms, for `CCS(=O)(=O)n1c(Oc2cc(C)ccc2C)noc1=O` [Example 2, 3-(2,5-dimethylphenoxy)-4-ethanesulphonyl-4H-[1,2,4]oxadiazol-5-one] the value was 95%; for `Cc1ccc(Oc2noc(=O)n2S(C)(=O)=O)c(C)c1` [Example 10], 92%. On the same count and under the same terms, in the case of `Cc1ccc(Oc2noc(=O)n2S(=O)(=O)N(C)C)c(C)c1` [Example 12] it was 97%. On the same count and under the same terms, in the case of `COc1ccc(Oc2noc(=O)n2S(=O)(=O)N(C)C)cc1` [Example 13] it was 92%. Turning to `CCS(=O)(=O)n1c(Oc2ccc(C)cc2C)noc1=O` [Example 14], the pest or weed control at 100 g/ha stood at 97%. Take `Cc1ccc(Oc2noc(=O)n2S(=O)(=O)N(C)C)cc1C` [Example 16]: the pest or weed control at 100 g/ha is 99%. As for `CN(C)S(=O)(=O)n1c(Oc2ccc(Br)cc2)noc1=O` [Example 17], the pest or weed control at 100 g/ha was determined as 94%. On to `CN(C)S(=O)(=O)n1c(Oc2ccccc2)noc1=O` [Example 18], for which the pest or weed control at 100 g/ha was 95%.

Source of the values: US6100281A, “Sulphonyloxadiazolones” (Bayer Aktiengesellschaft, priority 1997, dated 2000).
